IC50 and feed uptake data for one sequence are collected here from patent publication US7268212B2, “Ligand of G protein-coupled receptor protein and DNA thereof” (Takeda Pharmaceutical Company Limited, priority 2001, dated 2007).

No end group written: not given here.

The target in one test is T1, bovine GPR7 (Bos taurus, UniProt Q8MJV3).
T1 construct: expressed in transfected cells; host or cells: CHO cells
T1 sequence (Q8MJV3 1-331): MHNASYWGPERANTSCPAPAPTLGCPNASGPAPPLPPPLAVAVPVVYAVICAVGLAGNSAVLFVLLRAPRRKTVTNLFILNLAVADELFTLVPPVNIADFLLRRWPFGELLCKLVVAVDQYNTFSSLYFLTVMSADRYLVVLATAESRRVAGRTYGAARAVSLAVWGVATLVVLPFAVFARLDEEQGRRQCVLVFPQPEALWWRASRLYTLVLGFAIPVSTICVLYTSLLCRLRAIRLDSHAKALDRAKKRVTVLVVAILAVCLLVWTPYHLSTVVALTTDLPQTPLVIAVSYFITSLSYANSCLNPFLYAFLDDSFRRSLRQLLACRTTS
Kind of test: Intracellular cAMP production suppression activity on bovine GPR7-expressed CHO cells. The test is classed as cell-based. The following applies: forskolin-promoted cAMP production; receptor-expressed CHO cells; read-out: IC50 (nM) bovine GPR7, cAMP production inhibition. On the procedure: The intracellular cAMP production suppression activity of peptides associated with various GPR7 ligands on CHO cells, in which human GPR7, bovine GPR8, human GPR8, human GPR8, bovine GPR8 and rat GPR7 were expressed, was examined. […] An assay buffer was prepared by adding 20 mM HEPES, pH7.4, 0.1% bovine serum albumin and 0.2 mM 3-isobutyl-1-methylxanthine (Sigma) to Hanks' Balanced Salt Solution (Gibco BRL). The plate incubated overnight was first washed twice with 150 μl of the assay buffer, and then exchanged with 150 μl of the assay buffer, followed by incubation for 30 minutes at 37° C. in 100% air. By adding 4 μM forskolin to the assay buffer, a buffer for sample dilution was prepared and the stock solution (10^−2 M of 10^−3 M) was diluted with the buffer thus obtained to prepare sample solutions in final concentrations of 10^−6 M, 10^−7 M, 10^−8 M, 10^−9 M and 10^−10 M. The plate incubated with the assay buffer for 30 minutes was taken out. After washing twice with the assay buffer, 50 μl of the assay buffer and then 50 μl of the sample solution were added thereto. Each sample was assayed in triplet. […] A difference between the maximum cAMP level and the cAMP level when each sample was added was calculated and the percentage of cAMP production level promoted by forskolin was worked out, which was made the cAMP production inhibition rate.
(In general: Cyclic AMP is a second messenger, typically raised through Gs and lowered through Gi signalling.)

Another test has as its system Wistar male rats. Kind of test: Effect of GPR7 ligand on feed uptake in rat by lateral ventricular injection. The test is classed as in vivo. The following applies: 10 nmols/rat into the lateral ventricle; from 2 hours after the administration; compared to the control group (distilled water). The procedure: The effect of GPR7 ligand (GPR7L) on feed uptake in rat by lateral ventricular injection was examined. Rat was caged at room temperature of 25° C. while lighting for 8 to 20 o'clock. Mature Wistar male rats (300-320 g body weight upon surgery) were anesthetized with an intraperitoneal injection of 50 mg/kg pentobarbital and placed in a rat brain stereotaxic instrument. The level of incisor bar was 3.3 mm below the interaural line. The skull was exposed, and using a dental drill a hole was made on the bone for implantation of guide cannula AG-8 (inner diameter of 0.4 mm, outer diameter of 0.5 mm, EICOM Corporation). In addition, an anchor screw was buried at 3 positions around the hole. A stainless-steel guide cannula, AG-8, was inserted in such a manner that the tip was situated at the upper part of the lateral ventricle. Stereotaxic coordinates were taken from the atlas according to the atlas of Paxinos & Watson (1986) from bregma AP: −0.8 mm, L:1.5 mm and H:−4.5 mm. The guide cannula was secured to the skull using a dental cement and an anchor screw. […]
After the guide cannula was implanted, rats were caged for about a week to recover from surgical operation. […] The infusion was continued from 19:00 to 20:00 o'clock, and the feed uptake thereafter was measured with passage of time, using a feed uptake measuring device Feed-Scale (Columbus, Inc.).

Take “WYKPTAGQGYYSVGRAAGLLSGFHRSPYA [Trp1-bovine GPR7L(29)]”: the IC50 (as a rule, the concentration at which inhibition is half-maximal) at bovine GPR7 came to 1.2 nM. For the same sequence, the feed uptake entry in the test on Wistar male rats is given as “significant increase in feed uptake”.
